Source: paper PMC11111408, “Concurrent inhibition of oncogenic and wild-type RAS-GTP for cancer therapy” (Nature, 2024)

System: PRISM DNA-barcoded human tumour cell lines
Assay: PRISM pooled cell viability assay;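 as to PRISM AUC: 8 threefold dilutions from 10 µM with 5 days of exposure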
Assay type: cell-based
Design: AUC (PRISM viability) / AUC (PRISM): unit not given beside the values
Settings: for AUC (PRISM viability): WT; for PRISM AUC: KRAS MUT
Experimental: Cells were then lysed in TCL mRNA lysis buffer, and then PCR with reverse transcription was performed. Detection of the barcodes and univariate and multivariate analysis was then performed as previously described. Data analysis is described in the Supplementary Methods. Up-to-date code for our analysis is at the github link: https://github.com/cmap/dockerized_mts.
For every gene with non-silent mutations in at least four cell-lines, we compared the AUC values between cells with and without those mutations using a t-test. This analysis was carried out for: (i) the full dataset; (ii) excluding cell lines with non-silent KRAS mutations; and (iii) excluding cell lines that have either KRAS or NRAS non-silent mutations.

CCn1c(-c2cc(N3CCN(C4CC4)CC3)cnc2[C@H](C)OC)c2c3cc(ccc31)-c1csc(n1)C[C@H](NC(=O)[C@H]1[C@@H]3COC[C@@H]31)C(=O)N1CCC[C@H](N1)C(=O)OCC(C)(C)C2 [RMC-7977]
AUC (PRISM viability) (HUG1N_STOMACH): 0.8055
AUC (PRISM viability) (HUH1_LIVER): 0.7529
AUC (PRISM viability) (HUH6_LIVER): 0.7376
AUC (PRISM viability) (HUH7_LIVER): 0.8557
AUC (PRISM viability) (HUH28_BILIARY_TRACT): 0.8029
PRISM AUC (HUPT3_PANCREAS): 0.1666
PRISM AUC (HUPT4_PANCREAS): 0.2071
PRISM AUC (IALM_LUNG): 0.3346
AUC (PRISM viability) (IGR1_SKIN): 0.9019
AUC (PRISM viability) (IGR37_SKIN): 0.7982
AUC (PRISM viability) (IGR39_SKIN): 0.9854
AUC (PRISM viability) (IGROV1_OVARY): 0.7964
AUC (PRISM viability) (IM95_STOMACH): 0.4996
AUC (PRISM viability) (IPC298_SKIN): 0.1645
AUC (PRISM viability) (ISHIKAWAHERAKLIO02ER_ENDOMETRIUM): 0.7979
AUC (PRISM viability) (ISTMES2_PLEURA): 1
AUC (PRISM viability) (J82_URINARY_TRACT): 0.7456
AUC (PRISM viability) (JEKO1_HAEMATOPOIETIC_AND_LYMPHOID_TISSUE): 0.8585
AUC (PRISM viability) (JHH1_LIVER): 0.2992
AUC (PRISM viability) (JHH4_LIVER): 0.7822
AUC (PRISM viability) (JHH5_LIVER): 0.337
AUC (PRISM viability) (JHH6_LIVER): 0.6328
AUC (PRISM viability) (JHH7_LIVER): 0.6689
AUC (PRISM viability) (JHOC5_OVARY): 0.6127
AUC (PRISM viability) (JHOM1_OVARY): 0.7183
AUC (PRISM viability) (JHOS2_OVARY): 0.6659
AUC (PRISM viability) (JHUEM2_ENDOMETRIUM): 0.722
AUC (PRISM viability) (JIMT1_BREAST): 0.6067
AUC (PRISM viability) (JJN3_HAEMATOPOIETIC_AND_LYMPHOID_TISSUE): 0.5546
AUC (PRISM viability) (JL1_PLEURA): 0.8348
AUC (PRISM viability) (JM1_HAEMATOPOIETIC_AND_LYMPHOID_TISSUE): 0.8697
AUC (PRISM viability) (JMSU1_URINARY_TRACT): 0.7968
AUC (PRISM viability) (JURKAT_HAEMATOPOIETIC_AND_LYMPHOID_TISSUE): 1
AUC (PRISM viability) (JURLMK1_HAEMATOPOIETIC_AND_LYMPHOID_TISSUE): 0.263
AUC (PRISM viability) (JVM3_HAEMATOPOIETIC_AND_LYMPHOID_TISSUE): 0.6896
AUC (PRISM viability) (K029AX_SKIN): 0.9507
AUC (PRISM viability) (K562_HAEMATOPOIETIC_AND_LYMPHOID_TISSUE): 0.4372
AUC (PRISM viability) (KALS1_CENTRAL_NERVOUS_SYSTEM): 0.7464
AUC (PRISM viability) (KARPAS299_HAEMATOPOIETIC_AND_LYMPHOID_TISSUE): 0.6122
PRISM AUC (KARPAS620_HAEMATOPOIETIC_AND_LYMPHOID_TISSUE): 0.3529
AUC (PRISM viability) (KATOIII_STOMACH): 0.4955
AUC (PRISM viability) (KCL22_HAEMATOPOIETIC_AND_LYMPHOID_TISSUE): 0.4527
AUC (PRISM viability) (KE37_HAEMATOPOIETIC_AND_LYMPHOID_TISSUE): 0.4418
AUC (PRISM viability) (KE39_STOMACH): 0.6732
AUC (PRISM viability) (KELLY_AUTONOMIC_GANGLIA): 0.7861
PRISM AUC (KHM1B_HAEMATOPOIETIC_AND_LYMPHOID_TISSUE): 0.496
AUC (PRISM viability) (KLE_ENDOMETRIUM): 0.8932
AUC (PRISM viability) (KMBC2_URINARY_TRACT): 0.2167
AUC (PRISM viability) (KMH2_HAEMATOPOIETIC_AND_LYMPHOID_TISSUE): 0.7624
AUC (PRISM viability) (KMRC1_KIDNEY): 1
AUC (PRISM viability) (KMRC3_KIDNEY): 0.8631
AUC (PRISM viability) (KMRC20_KIDNEY): 0.5322
AUC (PRISM viability) (KMS11_HAEMATOPOIETIC_AND_LYMPHOID_TISSUE): 0.6264
AUC (PRISM viability) (KMS18_HAEMATOPOIETIC_AND_LYMPHOID_TISSUE): 0.2086
AUC (PRISM viability) (KMS27_HAEMATOPOIETIC_AND_LYMPHOID_TISSUE): 0.3359
AUC (PRISM viability) (KMS34_HAEMATOPOIETIC_AND_LYMPHOID_TISSUE): 0.4857
AUC (PRISM viability) (KNS42_CENTRAL_NERVOUS_SYSTEM): 0.8285
AUC (PRISM viability) (KNS60_CENTRAL_NERVOUS_SYSTEM): 0.8415
AUC (PRISM viability) (KNS62_LUNG): 0.4354
AUC (PRISM viability) (KNS81_CENTRAL_NERVOUS_SYSTEM): 0.5354
PRISM AUC (KOPN8_HAEMATOPOIETIC_AND_LYMPHOID_TISSUE): 0.2801
PRISM AUC (KP2_PANCREAS): 0.2975
PRISM AUC (KP3_PANCREAS): 0.3778
PRISM AUC (KP4_PANCREAS): 0.4423
AUC (PRISM viability) (KS1_CENTRAL_NERVOUS_SYSTEM): 0.4806
AUC (PRISM viability) (KU1919_URINARY_TRACT): 0.2273
AUC (PRISM viability) (KURAMOCHI_OVARY): 1
AUC (PRISM viability) (KYM1_SOFT_TISSUE): 0.3526
AUC (PRISM viability) (KYO1_HAEMATOPOIETIC_AND_LYMPHOID_TISSUE): 0.2345
AUC (PRISM viability) (KYSE30_OESOPHAGUS): 0.402
AUC (PRISM viability) (KYSE70_OESOPHAGUS): 0.7015
AUC (PRISM viability) (KYSE140_OESOPHAGUS): 0.5343
AUC (PRISM viability) (KYSE150_OESOPHAGUS): 0.4708
AUC (PRISM viability) (KYSE180_OESOPHAGUS): 0.5999
AUC (PRISM viability) (KYSE270_OESOPHAGUS): 0.564
PRISM AUC (KYSE410_OESOPHAGUS): 0.2588
AUC (PRISM viability) (KYSE450_OESOPHAGUS): 0.34
AUC (PRISM viability) (KYSE510_OESOPHAGUS): 0.4594
AUC (PRISM viability) (KYSE520_OESOPHAGUS): 0.4602
PRISM AUC (L33_PANCREAS): 0.3993
AUC (PRISM viability) (L363_HAEMATOPOIETIC_AND_LYMPHOID_TISSUE): 0.6953
AUC (PRISM viability) (LAMA84_HAEMATOPOIETIC_AND_LYMPHOID_TISSUE): 0.3291
AUC (PRISM viability) (LCLC103H_LUNG): 0.6805
AUC (PRISM viability) (LI7_LIVER): 0.4821
AUC (PRISM viability) (LK2_LUNG): 0.4878
AUC (PRISM viability) (LMSU_STOMACH): 0.6242
AUC (PRISM viability) (LN18_CENTRAL_NERVOUS_SYSTEM): 0.6382
AUC (PRISM viability) (LN229_CENTRAL_NERVOUS_SYSTEM): 0.6899
AUC (PRISM viability) (LN382_CENTRAL_NERVOUS_SYSTEM): 0.6351
AUC (PRISM viability) (LNCAPCLONEFGC_PROSTATE): 0.7528
AUC (PRISM viability) (LNZ308_CENTRAL_NERVOUS_SYSTEM): 0.4353
AUC (PRISM viability) (LOUNH91_LUNG): 0.4098
PRISM AUC (LOVO_LARGE_INTESTINE): 0.4131
AUC (PRISM viability) (LOXIMVI_SKIN): 1
PRISM AUC (LS180_LARGE_INTESTINE): 0.2098
AUC (PRISM viability) (LS411N_LARGE_INTESTINE): 1
PRISM AUC (LS513_LARGE_INTESTINE): 0.2181
PRISM AUC (LU99_LUNG): 0.2453
AUC (PRISM viability) (LUDLU1_LUNG): 0.5495
AUC (PRISM viability) (LXF289_LUNG): 0.5423
AUC (PRISM viability) (M059K_CENTRAL_NERVOUS_SYSTEM): 0.9015
AUC (PRISM viability) (MALME3M_SKIN): 0.9889
AUC (PRISM viability) (MC116_HAEMATOPOIETIC_AND_LYMPHOID_TISSUE): 0.9825
PRISM AUC (MCAS_OVARY): 0.3593
AUC (PRISM viability) (MCF7_BREAST): 0.8582
AUC (PRISM viability) (MDAMB175VII_BREAST): 0.5383
PRISM AUC (MDAMB231_BREAST): 0.478
AUC (PRISM viability) (MDAMB361_BREAST): 0.7391
AUC (PRISM viability) (MDAMB435S_SKIN): 0.9518
AUC (PRISM viability) (MDAMB436_BREAST): 0.9067
AUC (PRISM viability) (MDAMB453_BREAST): 0.3963
AUC (PRISM viability) (MDAMB468_BREAST): 0.5525
AUC (PRISM viability) (MDST8_LARGE_INTESTINE): 0.7229
AUC (PRISM viability) (MELHO_SKIN): 0.9921
AUC (PRISM viability) (MELJUSO_SKIN): 0.3578
AUC (PRISM viability) (MESSA_SOFT_TISSUE): 0.9559
AUC (PRISM viability) (MEWO_SKIN): 0.6173
AUC (PRISM viability) (MFE280_ENDOMETRIUM): 0.5252
AUC (PRISM viability) (MFE296_ENDOMETRIUM): 0.9033
AUC (PRISM viability) (MFE319_ENDOMETRIUM): 0.8155
AUC (PRISM viability) (MG63_BONE): 0.7861
AUC (PRISM viability) (MHHES1_BONE): 0.8525
AUC (PRISM viability) (MHHNB11_AUTONOMIC_GANGLIA): 0.4191
PRISM AUC (MIAPACA2_PANCREAS): 0.1568
AUC (PRISM viability) (MKN1_STOMACH): 0.5983
AUC (PRISM viability) (MKN7_STOMACH): 0.4769
AUC (PRISM viability) (MKN45_STOMACH): 0.1583
AUC (PRISM viability) (MKN74_STOMACH): 0.7438
AUC (PRISM viability) (MOLM13_HAEMATOPOIETIC_AND_LYMPHOID_TISSUE): 0.4032
AUC (PRISM viability) (MOLP2_HAEMATOPOIETIC_AND_LYMPHOID_TISSUE): 0.65
AUC (PRISM viability) (MOLT16_HAEMATOPOIETIC_AND_LYMPHOID_TISSUE): 0.6383
AUC (PRISM viability) (MONOMAC1_HAEMATOPOIETIC_AND_LYMPHOID_TISSUE): 0.7673
AUC (PRISM viability) (MONOMAC6_HAEMATOPOIETIC_AND_LYMPHOID_TISSUE): 0.6964
